The test system of data set [1] is Escherichia coli. Description: Potency index, ratio of ciprofloxacin MIC to compound MIC for Escherichia coli NCTC 10419. The format is functional.
Data set [2] deals with Escherichia coli. Nature of the data set: Antibacterial activity against Escherichia coli NCTC 10419 infected in CF mouse assessed as protection against bacterial infection administered orally at 1 and 4 hrs post infection measured after 1 week. The format is functional, organism-based.
Data set [3] deals with Escherichia coli. Description: Potency index, ratio of ciprofloxacin EC50 to compound EC50 for antibacterial activity against Escherichia coli NCTC 10419 infected in CF mouse. In kind it is functional.
Data set [4] relates to Escherichia coli. Description: Potency index, ratio of ciprofloxacin MIC to compound MIC for Escherichia coli. In kind it is functional.
The subject of data set [5] is Escherichia coli. Description: Antibacterial activity against Escherichia coli. In kind it is functional.
In a further data set the test system is Klebsiella pneumoniae. Nature of the data set: Antibacterial activity against Klebsiella pneumoniae by microdilution method. The format is functional.
A short description of data set [6]: Solubility of the compound in water. In kind it is physicochemical.
Data set [7] relates to Escherichia coli. Description: microbe, parasite or virus in culture. The conditions noted are these: NCTC 10419.
Description: Antibacterial activity against Escherichia coli NCTC 10419 after 18 to 20 hrs by agar dilution method

Values after ≈ are worked out from the molar mass of the structure shown.

Take `COc1cc(Cc2cnc(/N=C3\C(=O)N(CN4CCN(c5cc6c(cc5F)c(=O)c(C(=O)O)cn6C5CC5)CC4)c4ccc(C)cc43)nc2N)cc(OC)c1OC`: the Ratio in the data set on Escherichia coli [1] came to 5.5. In addition, in the data set with Escherichia coli [2], the EC50 is 0.62 mg/kg. Moreover, the “Ratio EC50” value with Escherichia coli [3] is given as 2. As for `O=C1OCC(OCCN2CCN(c3cc4c(cc3F)c(=O)c(C(=O)O)cn4C3CC3)CC2)=C1c1ccccc1F`, in the data set on Escherichia coli [4], the Ratio worked out at 50. In the data set on Escherichia coli [5], this molecule registered an MIC of 0.11 µg/mL (≈ 0.199 µM). In the case of `CC1=NOc2c(N3CCC(C)CC3)c(F)cc3c(=O)c(C(=O)O)cn1c23`, the MIC in the data set on Klebsiella pneumoniae was found to be 8 µg/mL (≈ 22.3 µM). For the molecule `CO/N=C1\CCN(c2cc3c(cc2F)c(=O)c(C(=O)O)cn3C2CC2)CC1N.CS(=O)(=O)O` (stereo unspecified), the solubility in data set [6] was found to be 22.5 mg/mL.

Molecule `CC1=NOc2c(N3CCN(C)CC3)c(F)cc3c(=O)c(C(=O)O)cn1c23` displayed an MIC in the data set with Klebsiella pneumoniae of 8 µg/mL (≈ 22.2 µM). On the same count and under the same terms, under `CC1=NOc2c(N3CCc4ccccc4C3)c(F)cc3c(=O)c(C(=O)O)cn1c23` stands 8 µg/mL (≈ 20.3 µM).

The molecule `O=C(O)c1cn(C2CC2)c2cc(N3CCNCC3)c(F)cc2c1=O` [CIPROFLOXACIN] had an MIC in the data set with Escherichia coli [7] of 1.1 nM (≈ 0.364 ng/mL). In the data set with Escherichia coli [2], the EC50 was found to be 1.25 mg/kg.

The values are drawn from ChEMBL document CHEMBL4130505, “4-Quinolone hybrids and their antibacterial activities” (Eur J Med Chem, 2017).
